Measured values reported in the supplement of paper PMC10307832.

Columns and labels:
Assay in all cases: relative viability (nuclei count vs DMSO), 5 days (fraction); higher = more cells survive
Vorinostat + Dasatinib = compound: O=C(CCCCCCC(=O)Nc1ccccc1)NO [Vorinostat] + Cc1nc(Nc2ncc(C(=O)Nc3c(C)cccc3Cl)s2)cc(N2CCN(CCO)CC2)n1 [Dasatinib] (partner 0.075 µM)
Method in brief: (§1)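 Lung cancer cell lines, seeded in 1536-well plates, were treated the following day by pin tool with a single drug or with five library-drug doses (not always all listed) in √10 steps on top of a fixed anchor-drug dose. Cells were fixed and nuclei stained in one step after 5 days, and nuclei were counted. Relative viability is the nuclei count for treated wells divided by that for vehicle wells, reported as medians of duplicate plates.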

Vorinostat + Tozasertib = compound: O=C(CCCCCCC(=O)Nc1ccccc1)NO [Vorinostat] + Cc1cc(Nc2cc(N3CCN(C)CC3)nc(Sc3ccc(NC(=O)C4CC4)cc3)n2)n[nH]1 [Tozasertib] (partner 0.1 µM)
Method in brief: as §1

Vorinostat + Linsitinib = compound: O=C(CCCCCCC(=O)Nc1ccccc1)NO [Vorinostat] + C[C@]1(O)C[C@@H](c2nc(-c3ccc4ccc(-c5ccccc5)nc4c3)c3c(N)nccn32)C1 [Linsitinib] (partner 1 µM)
Method in brief: as §1

Vorinostat + OSI-027 = compound: O=C(CCCCCCC(=O)Nc1ccccc1)NO [Vorinostat] + COc1cccc2cc(-c3nc([C@H]4CC[C@H](C(=O)O)CC4)n4ncnc(N)c34)[nH]c12 [OSI-027] (partner 0.5 µM)
Method in brief: as §1

Vorinostat + Crizotinib = compound: O=C(CCCCCCC(=O)Nc1ccccc1)NO [Vorinostat] + C[C@@H](Oc1cc(-c2cnn(C3CCNCC3)c2)cnc1N)c1c(Cl)ccc(F)c1Cl [Crizotinib] (partner 1 µM)
Method in brief: as §1

Row | Cell Line | relative viability (Vorinostat + Dasatinib; first compound 0.253 µM) | relative viability (Vorinostat + Dasatinib; first compound 0.8 µM) | relative viability (Vorinostat + Dasatinib; first compound 2.53 µM) | relative viability (Vorinostat + Dasatinib; first compound 8 µM) | relative viability (Vorinostat + Tozasertib; first compound 0.253 µM) | relative viability (Vorinostat + Tozasertib; first compound 0.8 µM) | relative viability (Vorinostat + Tozasertib; first compound 2.53 µM) | relative viability (Vorinostat + Tozasertib; first compound 8 µM) | relative viability (Vorinostat + Linsitinib; first compound 0.253 µM) | relative viability (Vorinostat + Linsitinib; first compound 0.8 µM) | relative viability (Vorinostat + Linsitinib; first compound 2.53 µM) | relative viability (Vorinostat + Linsitinib; first compound 8 µM) | relative viability (Vorinostat + OSI-027; first compound 0.253 µM) | relative viability (Vorinostat + OSI-027; first compound 0.8 µM) | relative viability (Vorinostat + OSI-027; first compound 2.53 µM) | relative viability (Vorinostat + OSI-027; first compound 8 µM) | relative viability (Vorinostat + Crizotinib; first compound 0.253 µM) | relative viability (Vorinostat + Crizotinib; first compound 0.8 µM) | relative viability (Vorinostat + Crizotinib; first compound 2.53 µM) | relative viability (Vorinostat + Crizotinib; first compound 8 µM)
1 | EPLC-272H | 0.428 | 0.494 | 0.151 | 0.0935 | 0.289 | 0.249 | 0.189 | 0.149 | 1.17 | 1.13 | 0.361 | 0.156 | 0.272 | 0.228 | 0.175 | 0.147 | 0.875 | 0.774 | 0.346 | 0.178
2 | NCI-H2023 | 0.872 | 0.49 | 0.134 | 0.061 | 0.364 | 0.215 | 0.11 | 0.0623 | 0.841 | 0.682 | 0.296 | 0.0892 | 0.473 | 0.359 | 0.134 | 0.0617 | 0.716 | 0.525 | 0.188 | 0.0669
3 | NCI-H1734 | 0.608 | 0.624 | 0.39 | 0.111 | 0.258 | 0.229 | 0.162 | 0.133 | 0.982 | 0.856 | 0.658 | 0.133 | 0.803 | 0.672 | 0.362 | 0.137 | 0.779 | 0.683 | 0.214 | 0.127
4 | NCI-H2405 | 0.237 | 0.17 | 0.117 | 0.0585 | 0.718 | 0.692 | 0.339 | 0.117 | 1.13 | 1.09 | 0.245 | 0.0821 | 0.695 | 0.778 | 0.463 | 0.103 | 0.917 | 0.88 | 0.415 | 0.0921
5 | LXF-289 | 0.316 | 0.347 | 0.226 | 0.0398 | 0.209 | 0.165 | 0.0836 | 0.0447 | 1.03 | 0.994 | 0.391 | 0.108 | 0.969 | 0.761 | 0.407 | 0.0564 | 0.904 | 0.76 | 0.273 | 0.0737
6 | HCC-827 | 0.299 | 0.334 | 0.382 | 0.314 | 0.5 | 0.454 | 0.236 | 0.135 | 1.01 | 1.04 | 0.837 | 0.21 | 0.923 | 0.853 | 0.743 | 0.259 | 0.97 | 0.964 | 0.581 | 0.174
7 | RERF-LC-KJ | 0.817 | 0.543 | 0.212 | 0.24 | 0.442 | 0.318 | 0.262 | 0.213 | 0.983 | 0.855 | 0.694 | 0.168 | 0.56 | 0.52 | 0.238 | 0.256 | 0.813 | 0.744 | 0.448 | 0.156
8 | NCI-H1355 | 0.825 | 0.503 | 0.298 | 0.169 | 0.529 | 0.315 | 0.188 | 0.129 | 0.917 | 0.707 | 0.451 | 0.139 | 0.442 | 0.309 | 0.228 | 0.164 | 1.19 | 0.963 | 0.398 | 0.138
9 | NCI-H647 | 0.18 | 0.233 | 0.0551 | 0.0337 | 0.279 | 0.183 | 0.078 | 0.0319 | 1.24 | 0.959 | 0.294 | 0.0525 | 0.777 | 0.526 | 0.19 | 0.0491 | 1.15 | 0.591 | 0.178 | 0.0502
10 | LK-2 | 0.36 | 0.188 | 0.114 | 0.123 | 0.179 | 0.178 | 0.157 | 0.125 | 0.58 | 0.328 | 0.143 | 0.0894 | 0.196 | 0.169 | 0.117 | 0.103 | 0.227 | 0.237 | 0.175 | 0.0931
11 | H3255 | 0.396 | 0.342 | 0.309 | 0.301 | 0.705 | 0.525 | 0.277 | 0.219 | 1.01 | 0.941 | 0.589 | 0.247 | 0.669 | 0.694 | 0.478 | 0.289 | 1.02 | 0.817 | 0.411 | 0.225
12 | NCI-H1915 | 0.324 | 0.24 | 0.164 | 0.108 | 0.426 | 0.267 | 0.118 | 0.104 | 1.12 | 1.03 | 0.587 | 0.113 | 0.632 | 0.5 | 0.205 | 0.152 | 0.985 | 0.847 | 0.248 | 0.0881
13 | NCI-H3122 | 1.11 | 0.69 | 0.0421 | 0.0399 | 0.387 | 0.294 | 0.0525 | 0.0914 | 1.12 | 1.05 | 0.605 | 0.142 | 1.26 | 1.1 | 0.135 | 0.129 | 0.311 | 0.317 | 0.227 | 0.198
